One data set has as its system PC12 cells. The data set can be described thus: Lipid peroxidation (malondialdehyde levels) in cells exposed to Aβ or DDTC. Format: cell-based, rat. The conditions noted are these: PC12 cells exposed to amyloid peptide Aβ(1-42) or DDTC, with IPA; FIG. 4. From the text: In order to investigate the possibility that the cytoprotective properties of IPA are also the result, at least in part, of anti-oxidant activity, the -levels of malondialdehyde (“MDA”), a marker of lipid peroxidation, in PC12 cells exposed to Aβ or to oxidative stress were examined. Oxidative stress was delivered by exposing cells to […] (“DDTC”), an inhibitor of superoxide dismutase and an established model of oxidative injury. The PC12 cells were exposed to either amyloid peptide alone or amyloid peptide along with IPA. In other experiments, the cells were exposed to either DDTC alone or DDTC with IPA.

A further data set deals with PC12 neuroblastoma cells. The data set can be described thus: Prevention of cell death induced by oxidative stress (DDTC, superoxide dismutase inhibition). Format: cell-based, rat. The conditions noted are these: varying amounts of DDTC and IPA, FIG. 5. The procedure: To further confirm the observations shown in Example 4, we studied whether IPA was effective in preventing death of cells exposed to oxidative stress (DDTC). PC12 neuroblastoma cells were treated with varying amounts of DDTC, with or without varying amounts of IPA. The anti-oxidant activity of IPA is shown by preventing cell death of neurblastoma cells induced by inhibition of the superoxide dismutase by DDTC.

A further data set addresses Aβ (1-40) (Homo sapiens, UniProt P05067). The data set can be described thus: Aβ fibrillogenesis, thioflavin T fluorescence (β sheet formation). The conditions noted are these: 150 μM Aβ (1-40), 300 μM IPA, sodium salt. It is filed as biochemical. The procedure:
As a control, the ultrapure water used to dissolve the IPA containing an equivalent amount of sodium chloride was added to 150 μM Aβ (1-40) at a pH of 7. In one experiment, each of the solutions (i.e., the solution containing IPA and the control solution) was incubated for 24 hours. In a second experiment, each of the solutions was incubated for 48 hours. At the end of each incubation period, 50 mM glycine-NaOH buffer (pH 9.2) containing 2 μM thioflavin T was added to each sample (5 μL) to a final volume of 2 mL. Fluorescence, which is a direct measure of β sheet formation, was measured at an excitation wavelength of 435 nm and an emission wavelength of 485 nm using a Hitachi F-2000 fluorescence spectrometer. The average and standard deviations of the mean of 3 samples per condition were determined, and the results are presented (as bar graphs) in FIG. 6A (24 hour incubation) and FIG. 6B (48 hour incubation).

Data set [1] relates to human neuroblastoma cell line SK-N-SH. The data set can be described thus: Cytoprotection against Aβ(25-35) toxicity, cell viability. Format: cell-based. The conditions noted are these: SK-N-SH cells, 50 μM Aβ (25-35), 50 μM compound; FIG. 1. The procedure:
To illustrate the cytoprotective affects of IPA against the cytotoxic effects of Aβ, cells of the human neuroblastoma cell line SK-N-SH were used. These cells were exposed to 50 μM Aβ (25-35), the actively toxic fragment of Aβ (Yankner et al., 1990) with or without 50 μM of IPA. As a control, the experiments were repeated without Aβ. As a positive control, the well-known anti-oxidant, phenyl-N-t-butylnitrone (“PBN”) was substituted for IPA.

Aβ (1-40), sequence (P05067 672-711): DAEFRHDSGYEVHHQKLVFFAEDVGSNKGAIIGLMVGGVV

Regarding `O=C(O)CCc1c[nH]c2ccccc12` [IPA, indole-3-propionic acid], in the data set with PC12 cells, the “production of malondialdehyde (MDA), marker of lipid peroxidation” value is recorded as “significantly decreases the production of malondialdehyde”. For the same molecule, in the data set on PC12 neuroblastoma cells, the “survival of cells exposed to DDTC” value was “increases the survival of cells exposed to DDTC”. Also, the “thioflavin T fluorescence (β sheet formation) relative to control” value at Aβ (1-40) (pH 7, 24 hour incubation, FIG. 6A) is reported as “significantly less”; at Aβ (1-40) (pH 7, 48 hour incubation, FIG. 6B), “significantly less”.
As to `CC(C)(C)[N+]([O-])=Cc1ccccc1` [PBN, phenyl-N-t-butylnitrone], the “protective activity against cytotoxic effect of Aβ (viability, percent)” value in data set [1] is on record as “strong protective activity”.

Source of the values: patent US6395768B1, “Uses for indole-3-propionic acids and salts and esters thereof” (South Alabama Medical Science Foundation, priority 1998, dated 2002).
